Values of other authors, collected in patent US8481600B2, “Formulation of aspirin that is stable and showing minimal hydrolysis for parenteral administration for the treatment of cardiovascular and other disease states” (Academic Pharmaceuticals, Inc., priority 2007, dated 2013).

Legend:
[1] = cited from earlier work
[2] = cited from earlier work; remark: listed apart in the source
[3] = cited from earlier work; remark: listed apart in the source

## CC(=O)Oc1ccccc1C(=O)O [Lysine acetylsalicylate]
[1]
  water solubility: readily water soluble
[2]; human, in vivo
  treatment of acute migraine headaches: effective
[2]; patients
  incidence of sensitivity that can lead to anaphylactic shock: up to 5%
[3]; IV
  shortest half life after IV administration: 7.5 min
[3]; in vivo
  metabolism and hydrolysis to salicylic acid: rapid
